Experimental data published in ChEMBL document CHEMBL2203069, “Synthesis and structure-activity relationships of a novel series of pyrimidines as potent inhibitors of TBK1/IKKε kinases” (Bioorg Med Chem Lett, 2012).

What was measured:
[1] = biological target: T1, Serine/threonine-protein kinase TBK1 (Homo sapiens, UniProt Q9UHD2); experiment: Inhibition of TBK1 by radiometry
T1 sequence (Q9UHD2 whole entry): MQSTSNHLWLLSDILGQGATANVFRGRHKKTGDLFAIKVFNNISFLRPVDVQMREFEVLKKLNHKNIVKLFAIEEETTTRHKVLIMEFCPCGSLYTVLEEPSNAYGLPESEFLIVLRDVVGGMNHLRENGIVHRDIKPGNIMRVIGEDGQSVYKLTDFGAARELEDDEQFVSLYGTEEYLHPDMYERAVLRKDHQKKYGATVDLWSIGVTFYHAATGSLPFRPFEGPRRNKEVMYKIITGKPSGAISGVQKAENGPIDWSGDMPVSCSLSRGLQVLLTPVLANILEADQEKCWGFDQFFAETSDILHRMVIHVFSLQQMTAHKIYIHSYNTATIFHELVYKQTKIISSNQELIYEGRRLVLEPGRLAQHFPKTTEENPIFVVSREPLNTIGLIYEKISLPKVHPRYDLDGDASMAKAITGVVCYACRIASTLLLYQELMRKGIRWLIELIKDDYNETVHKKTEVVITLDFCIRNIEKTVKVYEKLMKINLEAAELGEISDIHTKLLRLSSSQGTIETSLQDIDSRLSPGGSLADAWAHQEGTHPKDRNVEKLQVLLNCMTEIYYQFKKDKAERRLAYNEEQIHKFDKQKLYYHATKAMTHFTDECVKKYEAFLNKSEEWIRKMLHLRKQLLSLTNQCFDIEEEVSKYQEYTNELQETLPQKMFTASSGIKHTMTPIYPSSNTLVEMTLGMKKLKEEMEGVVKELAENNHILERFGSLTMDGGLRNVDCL

[2] = Metabolic stability in mouse liver microsomes assessed as compound turnover after 30 mins; format: ADME, Microsome; settings: read-out: Drug metabolism
[3] = Metabolic stability in human liver microsomes assessed as compound turnover after 40 mins; format: ADME, Microsome; settings: read-out: Drug metabolism
[4] = biological target: T2, Serine/threonine-protein kinase TBK1 (Mus musculus, UniProt Q9WUN2); experiment: Inhibition of TBK1-mediated RANTES release in LPS-stimulated mouse RAW264.7 cells compound incubated for 30 mins prior LPS challenge measured after 6 hrs by ELISA; format: cell-based
T2 sequence (Q9WUN2 whole entry): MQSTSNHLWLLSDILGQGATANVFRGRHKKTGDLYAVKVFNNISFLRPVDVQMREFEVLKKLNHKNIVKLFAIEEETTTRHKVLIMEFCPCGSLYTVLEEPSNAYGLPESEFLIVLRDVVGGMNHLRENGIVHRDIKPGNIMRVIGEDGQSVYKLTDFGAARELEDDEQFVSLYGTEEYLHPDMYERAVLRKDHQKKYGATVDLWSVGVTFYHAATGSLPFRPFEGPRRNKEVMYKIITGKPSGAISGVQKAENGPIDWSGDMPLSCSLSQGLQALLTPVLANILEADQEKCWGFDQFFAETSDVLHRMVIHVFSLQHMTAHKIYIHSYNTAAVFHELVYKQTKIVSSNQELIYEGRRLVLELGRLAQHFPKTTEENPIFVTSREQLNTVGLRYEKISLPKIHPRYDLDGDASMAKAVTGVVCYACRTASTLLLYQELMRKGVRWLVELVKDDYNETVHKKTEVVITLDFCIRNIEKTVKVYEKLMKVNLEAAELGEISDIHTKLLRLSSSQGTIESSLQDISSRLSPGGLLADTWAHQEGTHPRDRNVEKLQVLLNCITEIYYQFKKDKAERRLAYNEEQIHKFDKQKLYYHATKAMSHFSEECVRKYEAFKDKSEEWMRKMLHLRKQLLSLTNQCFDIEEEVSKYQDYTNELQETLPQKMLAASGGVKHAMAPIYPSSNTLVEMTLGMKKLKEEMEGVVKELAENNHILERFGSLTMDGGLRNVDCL

[5] = Efflux ratio of permeability from basolateral to apical side to apical to basolateral side in human Caco2 cells; format: ADME, cell-based; settings: Caco-2
[6] = Permeability from apical to basolateral side of human Caco2 cells; format: ADME, cell-based; settings: Caco-2, read-out: permeability
[7] = biological target: T3, 3-phosphoinositide-dependent protein kinase 1 (Homo sapiens, UniProt O15530); experiment: Inhibition of PDK1 by radiometry
T3 sequence (O15530 whole entry): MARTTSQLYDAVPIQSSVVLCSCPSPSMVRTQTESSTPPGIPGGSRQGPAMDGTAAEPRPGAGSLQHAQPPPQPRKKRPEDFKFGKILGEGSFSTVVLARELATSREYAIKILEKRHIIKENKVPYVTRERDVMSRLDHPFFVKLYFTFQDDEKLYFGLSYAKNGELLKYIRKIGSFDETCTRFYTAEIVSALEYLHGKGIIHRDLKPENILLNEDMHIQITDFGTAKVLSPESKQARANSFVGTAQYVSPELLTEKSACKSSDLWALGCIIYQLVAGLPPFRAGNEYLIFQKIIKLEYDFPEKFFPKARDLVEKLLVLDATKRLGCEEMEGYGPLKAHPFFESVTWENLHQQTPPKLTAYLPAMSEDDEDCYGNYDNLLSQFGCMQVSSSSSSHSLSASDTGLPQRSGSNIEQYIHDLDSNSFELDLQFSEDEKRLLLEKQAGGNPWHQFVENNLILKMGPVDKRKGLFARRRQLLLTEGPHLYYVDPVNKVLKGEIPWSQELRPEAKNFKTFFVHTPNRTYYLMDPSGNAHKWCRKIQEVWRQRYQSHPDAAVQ

IC50 [1] | metabolised at 0.5 h [2] | metabolised at 40 min [3] | IC50 ([4]; read-out: IC50) | SMILES | further results
0.006 µM | – | – | – | O=C(NCCCNc1nc(Nc2cccc(NC(=O)N3CCCC3)c2)ncc1Br)c1cccs1 | –
0.11 µM | – | – | – | O=C(NCCCNc1nc(Nc2cccc(F)c2)ncc1C1CC1)c1cccs1 | –
0.002 µM | 61% | 61% | 0.22 µM | O=C(NCCCNc1nc(Nc2cnn(C3CCC3)c2)ncc1C1CC1)C1CCC1 | –
0.008 µM | 30% | 23% | 0.66 µM | CN1CCC(c2ccc(Nc3ncc(C4CC4)c(NCCCNC(=O)C4CCC4)n3)cc2)CC1 | –
0.013 µM | – | – | > 1 µM | O=C(NCCCNc1nc(Nc2cccnc2)ncc1C1CC1)C1CCC1 | –
3.2 µM | – | – | – | O=C(NCCCNc1nc(Nc2cncnc2)ncc1C1CC1)C1CCC1 | –
0.002 µM | – | – | – | CN1CCN(C(=O)c2ccc(Nc3ncc(C4CC4)c(NCCCNC(=O)C4CCC4)n3)cc2)CC1 | IC50 ([4]; raw264.7): Not Active
0.006 µM | – | – | 0.55 µM | CN(C)Cc1ccc(Nc2ncc(C3CC3)c(NCCCNC(=O)C3CCC3)n2)cc1 | efflux ratio [5]: 56; Papp A→B [6]: 1 ×10⁻⁶ cm/s
0.028 µM | – | – | 0.58 µM | O=C(NCCCNc1nc(Nc2cccc(N3CCOCC3)c2)ncc1C1CC1)C1CCC1 | –
> 1 µM | – | – | – | O=C(NCCCNc1nc(Nc2cccc(F)c2)ncc1CC1CC1)C1CCC1 | –
0.009 µM | – | – | 1.2 µM | O=C(NCCCNc1nc(Nc2ccc(CN3CCCCC3)nc2)ncc1C1CC1)C1CCC1 | efflux ratio [5]: 780; Papp A→B [6]: 0.1 ×10⁻⁶ cm/s
0.004 µM | 59% | 67% | 0.093 µM | O=C(NCCCNc1nc(Nc2cnn(C3CCCC3)c2)ncc1C1CC1)C1CCC1 | –
0.063 µM | – | – | – | CCc1cnc(Nc2cccc(F)c2)nc1NCCCNC(=O)C1CCC1 | –
– | – | – | – | O=C(NCCCNc1nc(Nc2cccc(F)c2)ncc1Br)C1CCC1 | IC50 [7]: 0.068 µM
0.007 µM | 42% | 24% | 3 µM | CC(C)N1CCC(n2cc(Nc3ncc(C4CC4)c(NCCCNC(=O)C4CCC4)n3)cn2)CC1 | efflux ratio [5]: 16; Papp A→B [6]: 1.4 ×10⁻⁶ cm/s
> 10 µM | – | – | – | O=C(NCCCNc1nc(NCc2ccc(F)cc2)ncc1C1CC1)c1cccs1 | –
0.002 µM | 33% | 25% | 0.28 µM | O=C(NCCCNc1nc(Nc2cnn(C3CCOCC3)c2)ncc1C1CC1)C1CCC1 | –
0.008 µM | 74% | 80% | 1.3 µM | O=C(NCCCNc1nc(Nc2cccc(F)c2)ncc1C1CC1)C1CCC1 | IC50 [7]: 0.58 µM
0.015 µM | 92% | 15% | 0.49 µM | O=C(NCCCNc1nc(Nc2ccc(N3CCOCC3)nc2)ncc1C1CC1)C1CCC1 | –
0.011 µM | 34% | 26% | 0.56 µM | O=C(NCCCNc1nc(Nc2cccc(-c3cnco3)c2)ncc1C1CC1)C1CCC1 | –
0.003 µM | – | 63% | 0.088 µM | O=C(NCCCNc1nc(Nc2cccc(Cn3cncn3)c2)ncc1C1CC1)C1CCC1 | –

IC50 [1] | metabolised at 0.5 h [2] | metabolised at 40 min [3] | IC50 ([4]; read-out: IC50) | SMILES | further results
0.003 µM | 35% | 23% | 0.15 µM | O=C(NCCCNc1nc(Nc2ccc(-n3cncn3)cc2)ncc1C1CC1)C1CCC1 | efflux ratio [5]: 3; Papp A→B [6]: 10 ×10⁻⁶ cm/s
0.007 µM | 86% | 91% | 0.57 µM | O=C(NCCCNc1nc(Nc2ccc3c(c2)CN(C2CC2)CC3)ncc1C1CC1)C1CCC1 | –
4.3 µM | – | – | – | CN1CCC(C(=O)NCCCNc2nc(Nc3cccc(F)c3)ncc2Br)CC1 | –
0.007 µM | 54% | 37% | 0.14 µM | CCn1cc(Nc2ncc(C3CC3)c(NCCCNC(=O)C3CCC3)n2)cn1 | –
> 1 µM | – | – | – | CC(C)c1cnc(Nc2cccc(F)c2)nc1NCCCNC(=O)C1CCC1 | –
> 10 µM | – | – | – | O=C(NCCCNc1nc(NC2CCCCC2)ncc1C1CC1)c1cccs1 | –
0.45 µM | – | – | – | O=C(NCCCNc1nc(Nc2cccc(F)c2)ncc1Br)c1ccc(C(F)(F)F)cc1 | –
0.43 µM | – | – | – | CC(=O)N1CCC(C(=O)NCCCNc2nc(Nc3cccc(F)c3)ncc2Br)CC1 | –
> 1 µM | – | – | – | Cn1ccc(Nc2ncc(C3CC3)c(NCCCNC(=O)C3CCC3)n2)n1 | –
0.82 µM | – | – | – | O=C(NCCCNc1nc(Nc2ccccc2F)ncc1C1CC1)c1cccs1 | –
3.6 µM | – | – | – | O=C(NCCCNc1nc(Nc2cccc(F)c2)ncc1Br)c1cccc(N2CCOCC2)c1 | –
0.008 µM | – | – | – | O=C(NCCCNc1nc(Nc2cccc(F)c2)ncc1Br)C1CCCC1 | IC50 [7]: 0.22 µM
0.007 µM | 41% | 86% | 0.09 µM | Cc1nn(C)c2cc(Nc3ncc(C4CC4)c(NCCCNC(=O)C4CCC4)n3)ccc12 | –
0.004 µM | 41% | 61% | 0.081 µM | CC(C)n1cc(Nc2ncc(C3CC3)c(NCCCNC(=O)C3CCC3)n2)cn1 | –
0.06 µM | – | – | – | COCCC(=O)NCCCNc1nc(Nc2cccc(F)c2)ncc1Br | –
0.009 µM | 68% | 46% | 9 µM | O=C(NCCCNc1nc(Nc2cnn(CCN3CCOCC3)c2)ncc1C1CC1)C1CCC1 | –
0.01 µM | 24% | 32% | 0.13 µM | O=C(NCCCNc1nc(Nc2cnn(C3CC3)c2)ncc1C1CC1)C1CCC1 | –
0.022 µM | – | – | – | O=C(NCCCNc1nc(Nc2cccc(F)c2)ncc1Br)c1cnccn1 | –
0.009 µM | – | – | – | O=C(NCCCNc1nc(Nc2cccc(F)c2)ncc1Br)c1cccs1 | IC50 [7]: 0.13 µM
0.56 µM | – | – | – | O=C(CCc1ccccc1)NCCCNc1nc(Nc2cccc(F)c2)ncc1Br | –
0.016 µM | 40% | 42% | 0.38 µM | Cn1ncc2cc(Nc3ncc(C4CC4)c(NCCCNC(=O)C4CCC4)n3)ccc21 | –
